This is an account of results in ChEMBL document CHEMBL1152500, “Molecular recognition in the P2Y(14) receptor: Probing the structurally permissive terminal sugar moiety of uridine-5'-diphosphoglucose” (Bioorg Med Chem, 2009).

Each structure is given as a SMILES string. Bounds are passed on as bounds.

In the first test the target is T1, P2Y purinoceptor 14 (Homo sapiens) (UniProt Q15391).
T1 sequence (whole entry): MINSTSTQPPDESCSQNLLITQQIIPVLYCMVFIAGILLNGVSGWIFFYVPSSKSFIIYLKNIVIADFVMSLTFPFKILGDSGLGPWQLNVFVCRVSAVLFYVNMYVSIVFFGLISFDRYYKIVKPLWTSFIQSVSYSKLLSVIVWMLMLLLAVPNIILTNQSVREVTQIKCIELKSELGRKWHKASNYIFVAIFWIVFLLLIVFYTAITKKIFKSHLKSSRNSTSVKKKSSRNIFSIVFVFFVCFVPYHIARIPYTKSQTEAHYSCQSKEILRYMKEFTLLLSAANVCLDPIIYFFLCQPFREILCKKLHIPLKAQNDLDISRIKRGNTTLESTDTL
The experiment in a line: Agonist activity at human P2Y14 receptor expressed in […] cells at 10 uM. It counts as functional, cell-based. The note with it: COS-7.
The molecule `O=c1ccn([C@@H]2O[C@H](COP(=O)(O)OP(=O)(O)OC[C@H]3O[C@H](O)C[C@@H](O)[C@@H]3O)[C@@H](O)[C@H]2O)c(=O)[nH]1` came in with an Efficacy of less than 50%.

`CO/N=c1/ccn([C@@H]2O[C@H](COP(=O)(O)OP(=O)(O)O[C@H]3O[C@H](CO)[C@@H](O)[C@H](O)[C@H]3O)[C@@H](O)[C@H]2O)c(=O)[nH]1`: the Efficacy was less than 50%.

As to `CC(=O)N[C@@H]1[C@@H](O)[C@H](O)[C@@H](CO)O[C@@H]1CP(=O)(O)OP(=O)(O)OC[C@H]1O[C@@H](n2ccc(=O)[nH]c2=O)[C@H](O)[C@@H]1O`, the Efficacy is less than 50%.

The molecule `O=c1ccn([C@@H]2C[C@H](COP(=O)(O)OP(=O)(O)O[C@H]3O[C@H](CO)[C@@H](O)[C@H](O)[C@H]3O)[C@@H](O)[C@H]2O)c(=O)[nH]1` yielded an Efficacy of less than 20%.

A further test has as its target T2, P2Y purinoceptor 14 (Homo sapiens, UniProt Q15391).
T2 sequence (Q15391 whole entry): T1 sequence (whole entry)
The experiment in a line: Agonist activity at human P2Y14 receptor expressed in […] cells.
Details: not given
In kind it is functional, cell-based, COS-7.
For `O=c1ccn([C@@H]2O[C@H](COP(=O)(O)OP(=O)(O)OC[C@H]3O[C@H](O)[C@H](O)[C@@H](O)[C@@H]3O)[C@@H](O)[C@H]2O)c(=O)[nH]1`, the midpoint of the response, the EC50, lay at 373 nM.

Turning to `O=c1ccn([C@@H]2O[C@H](COP(=O)(O)OP(=O)(O)O[C@H]3O[C@H](CF)[C@@H](O)[C@H](O)[C@H]3O)[C@@H](O)[C@H]2O)c(=O)[nH]1`, the EC50 stood at 905 nM.

For the molecule `O=c1[nH]c(=S)ccn1[C@@H]1O[C@H](COP(=O)(O)OP(=O)(O)O[C@H]2O[C@H](CO)[C@@H](O)[C@H](O)[C@H]2O)[C@@H](O)[C@H]1O`, the concentration giving a half-maximal response (EC50) turned out to be 290 nM.

`CC(C)(C)OC(=O)NCCNC(=O)[C@H]1O[C@H](OP(=O)(O)OP(=O)(O)OC[C@H]2O[C@@H](n3ccc(=O)[nH]c3=O)[C@H](O)[C@@H]2O)[C@H](O)[C@@H](O)[C@@H]1O` gave an EC50 of 951 nM. Compared with the last molecule, the EC50 is about 3.3-fold higher.

On to `O=c1ccn([C@@H]2O[C@H](COP(=O)(O)OP(=O)(O)O[C@H]3O[C@H](CO)[C@@H](F)[C@H](O)[C@H]3O)[C@@H](O)[C@H]2O)c(=O)[nH]1`, for which the EC50 turned out to be 567 nM.

Take `O=c1ccn([C@@H]2O[C@H](COP(=O)(O)OP(=O)(O)OC[C@H]3O[C@H](O)[C@@H](O)[C@@H](O)[C@@H]3O)[C@@H](O)[C@H]2O)c(=O)[nH]1`: the midpoint of the response, the EC50, lay at 658 nM.

`O=c1ccn([C@@H]2O[C@H](COP(=O)(O)OP(=O)(O)O[C@@H]3[C@H](O)[C@H](O)[C@@H](O)[C@H](O)[C@H]3O)[C@@H](O)[C@H]2O)c(=O)[nH]1` registered an EC50 of 1880 nM.

Turning to `O=c1ccn([C@@H]2O[C@H](COP(=O)(O)OP(=O)(O)O[C@H]3O[C@H](CO)[C@@H](O)[C@H](F)[C@H]3O)[C@@H](O)[C@H]2O)c(=O)[nH]1`, a half-maximal effect (EC50) was put at 361 nM.

As for `CC(=O)NCCNC(=O)[C@H]1O[C@H](OP(=O)(O)OP(=O)(O)OC[C@H]2O[C@@H](n3ccc(=O)[nH]c3=O)[C@H](O)[C@@H]2O)[C@H](O)[C@@H](O)[C@@H]1O`, the EC50 was determined as 496 nM.

The molecule `O=c1ccn([C@@H]2O[C@H](COP(=O)(O)OP(=O)(O)OC[C@H]3O[C@H](O)[C@H](O)[C@@H]3O)[C@@H](O)[C@H]2O)c(=O)[nH]1` gave an EC50 of 238 nM.

With `O=c1ccn([C@@H]2O[C@H](COP(=O)(O)OP(=O)(O)O[C@H]3O[C@H](CO)[C@@H](O)[C@H](O)[C@H]3F)[C@@H](O)[C@H]2O)c(=O)[nH]1`, a half-maximal effect (EC50) was put at 2500 nM.

For the molecule `O=c1ccn([C@@H]2O[C@H](COP(=O)(O)OP(=O)(O)OC[C@H]3O[C@](O)(CO)[C@@H](O)[C@@H]3O)[C@@H](O)[C@H]2O)c(=O)[nH]1`, it took 323 nM to reach a half-maximal effect (EC50).

The molecule `C[C@H]1O[C@H](OP(=O)(O)OP(=O)(O)OC[C@H]2O[C@@H](n3ccc(=O)[nH]c3=O)[C@H](O)[C@@H]2O)[C@H](O)[C@@H](O)[C@H]1O` returned a concentration for a half-maximal effect (EC50) of 562 nM.

In the case of `O=c1ccn([C@@H]2O[C@H](COP(=O)(O)OP(=O)(O)OC[C@H]3O[C@H](O)[C@@H](O)[C@@H]3O)[C@@H](O)[C@H]2O)c(=O)[nH]1`, the EC50 is 460 nM.

Broadly, the EC50 is the concentration giving half of the maximal effect.
